According to PubChem BioAssay AID1963871 (Molecular Pharmacology Branch, DTP, NCI, 2024):

Tested on: KRAS-mutant PDC multicell tumor spheroid viability
Test: Anticancer human tumor 521955-158-R2-J5-PDC patient-derived pancreatic carcinoma cell line growth inhibition [KRAS2]
Conditions: for IC50: curve of first compound; for viability, T/C: stronger effect = lower value
Outline: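 Combination screen of spheroid viability in tumor-cell co-cultures with endothelial (HUVEC) and mesenchymal stem cell stroma. Each agent was tested in half-log dilutions, topping at clinical Cmax or at 10 microM without a known Cmax.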

[1] = second compound 0.1 µM, first compound 0.0316 µM
[2] = second compound 0.316 µM, first compound 0.0316 µM
[3] = second compound 1 µM, first compound 0.0316 µM
[4] = second compound 3.16 µM, first compound 0.0316 µM
[5] = second compound 10 µM, first compound 0.0316 µM
[6] = second compound 0.1 µM, first compound 0.1 µM
[7] = second compound 0.1 µM, first compound 0.316 µM
[8] = second compound 0.1 µM, first compound 1 µM
[9] = second compound 0.1 µM, first compound 3.16 µM
[10] = second compound 0.1 µM, first compound 10 µM
[11] = second compound 0.316 µM, first compound 0.1 µM
[12] = second compound 0.316 µM, first compound 0.316 µM
[13] = second compound 0.316 µM, first compound 1 µM
[14] = second compound 0.316 µM, first compound 3.16 µM
[15] = second compound 0.316 µM, first compound 10 µM
[16] = second compound 1 µM, first compound 0.1 µM
[17] = second compound 1 µM, first compound 0.316 µM
[18] = second compound 1 µM, first compound 1 µM
[19] = second compound 1 µM, first compound 3.16 µM
[20] = second compound 1 µM, first compound 10 µM
[21] = second compound 3.16 µM, first compound 0.1 µM
[22] = second compound 3.16 µM, first compound 0.316 µM
[23] = second compound 3.16 µM, first compound 1 µM
[24] = second compound 3.16 µM, first compound 3.16 µM
[25] = second compound 3.16 µM, first compound 10 µM
[26] = second compound 10 µM, first compound 0.1 µM
[27] = second compound 10 µM, first compound 0.316 µM
[28] = second compound 10 µM, first compound 1 µM
[29] = second compound 10 µM, first compound 3.16 µM
[30] = second compound 10 µM, first compound 10 µM
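Note: viability read after seven days of drug exposure.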

Question: How did the IC50 (second compound 0.1 µM) turn out when CC(=O)Nc1cccc(-n2c(=O)n(C3CC3)c(=O)c3c(Nc4ccc(I)cc4F)n(C)c(=O)c(C)c32)c1 + COc1cc2nc(C)nc(NC(C)c3cc(N)cc(C(F)(F)F)c3)c2cc1OC1CCOC1 was run?
Answer: 0.26 nM

Question: And the IC50 (second compound 0.316 µM)?
Answer: 0.209 nM

Question: What about the IC50 (second compound 1 µM) of the same compound?
Answer: 0.215 nM

Question: What about the IC50 (second compound 3.16 µM) of the same compound?
Answer: 0.26 nM

Question: What about the IC50 (second compound 10 µM) of the same compound?
Answer: < 0.1 nM

Question: What about the viability, T/C (second compound 0.1 µM, first compound 0.0001 µM) of the same compound?
Answer: 68.5%

Question: What about the viability, T/C (second compound 0.1 µM, first compound 0.000316 µM) of the same compound?
Answer: 48%

Question: What about the viability, T/C (second compound 0.1 µM, first compound 0.001 µM) of the same compound?
Answer: 26.1%

Question: And the viability, T/C (second compound 0.1 µM, first compound 0.00316 µM)?
Answer: 26.2%

Question: And the viability, T/C (second compound 0.1 µM, first compound 0.01 µM)?
Answer: 16.3%

Question: And the viability, T/C [1]?
Answer: 12.7%

Question: What about the viability, T/C (second compound 0.316 µM, first compound 0.0001 µM) of the same compound?
Answer: 58.5%

Question: What about the viability, T/C (second compound 0.316 µM, first compound 0.000316 µM) of the same compound?
Answer: 46.4%

Question: And the viability, T/C (second compound 0.316 µM, first compound 0.001 µM)?
Answer: 30.6%

Question: What about the viability, T/C (second compound 0.316 µM, first compound 0.00316 µM) of the same compound?
Answer: 24.8%

Question: And the viability, T/C (second compound 0.316 µM, first compound 0.01 µM)?
Answer: 16.7%

Question: And the viability, T/C [2]?
Answer: 8.98%

Question: And the viability, T/C (second compound 1 µM, first compound 0.0001 µM)?
Answer: 65.2%

Question: And the viability, T/C (second compound 1 µM, first compound 0.000316 µM)?
Answer: 39.3%

Question: And the viability, T/C (second compound 1 µM, first compound 0.001 µM)?
Answer: 31.4%

Question: What about the viability, T/C (second compound 1 µM, first compound 0.00316 µM) of the same compound?
Answer: 19.9%

Question: What about the viability, T/C (second compound 1 µM, first compound 0.01 µM) of the same compound?
Answer: 18.1%

Question: What about the viability, T/C [3] of the same compound?
Answer: 7.44%

Question: And the viability, T/C (second compound 3.16 µM, first compound 0.0001 µM)?
Answer: 63.6%

Question: And the viability, T/C (second compound 3.16 µM, first compound 0.000316 µM)?
Answer: 46.9%

Question: And the viability, T/C (second compound 3.16 µM, first compound 0.001 µM)?
Answer: 33.5%

Question: And the viability, T/C (second compound 3.16 µM, first compound 0.00316 µM)?
Answer: 21.8%

Question: And the viability, T/C (second compound 3.16 µM, first compound 0.01 µM)?
Answer: 16.8%

Question: What about the viability, T/C [4] of the same compound?
Answer: 5.44%

Question: What about the viability, T/C (second compound 10 µM, first compound 0.0001 µM) of the same compound?
Answer: 33%

Question: And the viability, T/C (second compound 10 µM, first compound 0.000316 µM)?
Answer: 37.1%

Question: What about the viability, T/C (second compound 10 µM, first compound 0.001 µM) of the same compound?
Answer: 26.8%

Question: And the viability, T/C (second compound 10 µM, first compound 0.00316 µM)?
Answer: 11.3%

Question: And the viability, T/C (second compound 10 µM, first compound 0.01 µM)?
Answer: 3.5%

Question: And the viability, T/C [5]?
Answer: 1.26%

Question: With COc1cc(Nc2ncc3c(n2)-c2ccc(Cl)cc2C(c2c(F)cccc2OC)=NC3)ccc1C(=O)O + COc1cc2nc(C)nc(NC(C)c3cc(N)cc(C(F)(F)F)c3)c2cc1OC1CCOC1 as the compound, how does the IC50 (second compound 0.1 µM) read?
Answer: < 31.6 nM

Question: What about the IC50 (second compound 0.316 µM) of the same compound?
Answer: < 31.6 nM

Question: And the IC50 (second compound 1 µM)?
Answer: < 31.6 nM

Question: What about the IC50 (second compound 3.16 µM) of the same compound?
Answer: < 31.6 nM

Question: And the IC50 (second compound 10 µM)?
Answer: < 31.6 nM

Question: What about the viability, T/C [1] of the same compound?
Answer: 40.5%

Question: What about the viability, T/C [6] of the same compound?
Answer: 35.1%

Question: What about the viability, T/C [7] of the same compound?
Answer: 41.5%

Question: And the viability, T/C [8]?
Answer: 37.5%

Question: And the viability, T/C [9]?
Answer: 37.2%

Question: And the viability, T/C [10]?
Answer: 33.2%

Question: What about the viability, T/C [2] of the same compound?
Answer: 45.3%

Question: And the viability, T/C [11]?
Answer: 38.4%

Question: And the viability, T/C [12]?
Answer: 40.7%

Question: And the viability, T/C [13]?
Answer: 36.7%

Question: And the viability, T/C [14]?
Answer: 37.3%

Question: What about the viability, T/C [15] of the same compound?
Answer: 34.6%

Question: And the viability, T/C [3]?
Answer: 46.9%

Question: What about the viability, T/C [16] of the same compound?
Answer: 35.4%

Question: What about the viability, T/C [17] of the same compound?
Answer: 39.4%

Question: And the viability, T/C [18]?
Answer: 40.5%

Question: And the viability, T/C [19]?
Answer: 33%

Question: And the viability, T/C [20]?
Answer: 34.2%

Question: And the viability, T/C [4]?
Answer: 38.5%

Question: And the viability, T/C [21]?
Answer: 32%

Question: And the viability, T/C [22]?
Answer: 32.5%

Question: And the viability, T/C [23]?
Answer: 33.7%

Question: And the viability, T/C [24]?
Answer: 30.1%

Question: What about the viability, T/C [25] of the same compound?
Answer: 31.6%

Question: And the viability, T/C [5]?
Answer: 11.7%

Question: And the viability, T/C [26]?
Answer: 2.43%

Question: What about the viability, T/C [27] of the same compound?
Answer: 2.29%

Question: And the viability, T/C [28]?
Answer: 2.71%

Question: And the viability, T/C [29]?
Answer: 10.7%

Question: And the viability, T/C [30]?
Answer: 2.59%

Question: With COc1cc2nccc(Oc3ccc(NC(=O)C4(C(=O)Nc5ccc(F)cc5)CC4)cc3)c2cc1OC + COc1cc2nc(C)nc(NC(C)c3cc(N)cc(C(F)(F)F)c3)c2cc1OC1CCOC1 as the compound, how does the IC50 (second compound 0.1 µM) read?
Answer: 7430 nM

Question: What about the IC50 (second compound 0.316 µM) of the same compound?
Answer: 7590 nM

Question: And the IC50 (second compound 1 µM)?
Answer: 5580 nM

Question: What about the IC50 (second compound 3.16 µM) of the same compound?
Answer: 3270 nM

Question: What about the IC50 (second compound 10 µM) of the same compound?
Answer: 1470 nM

Question: What about the viability, T/C [1] of the same compound?
Answer: 93.7%

Question: And the viability, T/C [6]?
Answer: 99.6%

Question: And the viability, T/C [7]?
Answer: 88.6%

Question: And the viability, T/C [8]?
Answer: 95.1%

Question: What about the viability, T/C [9] of the same compound?
Answer: 85.6%

Question: What about the viability, T/C [10] of the same compound?
Answer: 37.4%

Question: And the viability, T/C [2]?
Answer: 99.7%

Question: What about the viability, T/C [11] of the same compound?
Answer: 98.1%

Question: What about the viability, T/C [12] of the same compound?
Answer: 88.6%

Question: And the viability, T/C [13]?
Answer: 88.9%

Question: And the viability, T/C [14]?
Answer: 83.6%

Question: And the viability, T/C [15]?
Answer: 39.5%

Question: And the viability, T/C [3]?
Answer: 89%

Question: What about the viability, T/C [16] of the same compound?
Answer: 96.1%

Question: And the viability, T/C [17]?
Answer: 96.6%

Question: What about the viability, T/C [18] of the same compound?
Answer: 90.1%

Question: And the viability, T/C [19]?
Answer: 72%

Question: And the viability, T/C [20]?
Answer: 27.5%

Question: What about the viability, T/C [4] of the same compound?
Answer: 100%

Question: And the viability, T/C [21]?
Answer: 96.8%

Question: What about the viability, T/C [22] of the same compound?
Answer: 101%

Question: What about the viability, T/C [23] of the same compound?
Answer: 105%

Question: What about the viability, T/C [24] of the same compound?
Answer: 51.2%

Question: And the viability, T/C [25]?
Answer: 6.41%

Question: And the viability, T/C [5]?
Answer: 93.4%

Question: And the viability, T/C [26]?
Answer: 73.2%

Question: And the viability, T/C [27]?
Answer: 67%

Question: And the viability, T/C [28]?
Answer: 74.8%

Question: And the viability, T/C [29]?
Answer: 0.78%

Question: And the viability, T/C [30]?
Answer: 0.24%
